# Measured values taken from PubChem BioAssay AID651686 (The Scripps Research Institute Molecular Screening Center, 2012).
# Active and inactive are the calls of the source. The rule behind the calls is not given here.
# Test system: OPRD1 counterscreen cells, luminescence, activation
# Assay: OPRD1 cell luminescence activation counter-screen – dose response, counter-screen for OPRM1-OPRD1 heterodimer activator project, late-stage follow-up (AID 651686)
row,SMILES,EC50
1,OCC1(CCc2ccccc2)CCN(Cc2cc(F)ccc2-n2cccn2)CC1,> 40 µM (inactive)
2,CCOC(=O)C1(CCc2ccccc2)CCN(Cc2cc(C)cc(C)c2)CC1,> 40 µM (inactive)
3,CCOC(=O)C1(Cc2ccccc2)CCN(Cc2cccn2-c2cccnc2)CC1,> 40 µM (inactive)
4,CCOC(=O)C1(CCc2ccccc2)CCN(Cc2ccc(OC(C)C)c(C#N)c2)CC1,> 40 µM (inactive)
5,CCOC(=O)C1(CCCc2ccccc2)CCN(Cc2cnn(C)c2)CC1,> 40 µM (inactive)
6,CCOC(=O)C1(CCc2ccccc2)CCN(Cc2ccc(NC(C)=O)cc2)CC1,1.1 µM
7,CCOC(=O)C1(CCc2ccccc2)CCN(Cc2ccccc2C)CC1,> 40 µM (inactive)
8,CCOC(=O)C1(CCOc2ccccc2)CCN(Cc2ccc(O)c(OC)c2)CC1,> 40 µM (inactive)
9,CCOC(=O)C1(CCOc2ccccc2)CCN(Cc2cccn2-c2cccnc2)CC1,> 40 µM (inactive)
10,CCOC(=O)C1(CC2CCCCO2)CCN(Cc2c(C)cc(C)cc2-n2cccn2)CC1 (stereo unspecified),> 40 µM (inactive)
11,CCOC(=O)C1(Cc2ccccc2)CCN(Cc2cccn2-c2nccs2)CC1,> 40 µM (inactive)
